Molecular target: T1, hDGAT1 (Homo sapiens, UniProt O75907)
T1 construct: made in house; host or cells: Sf9 insect cells (baculovirus); microsomal fraction
T1 sequence (O75907 1-488): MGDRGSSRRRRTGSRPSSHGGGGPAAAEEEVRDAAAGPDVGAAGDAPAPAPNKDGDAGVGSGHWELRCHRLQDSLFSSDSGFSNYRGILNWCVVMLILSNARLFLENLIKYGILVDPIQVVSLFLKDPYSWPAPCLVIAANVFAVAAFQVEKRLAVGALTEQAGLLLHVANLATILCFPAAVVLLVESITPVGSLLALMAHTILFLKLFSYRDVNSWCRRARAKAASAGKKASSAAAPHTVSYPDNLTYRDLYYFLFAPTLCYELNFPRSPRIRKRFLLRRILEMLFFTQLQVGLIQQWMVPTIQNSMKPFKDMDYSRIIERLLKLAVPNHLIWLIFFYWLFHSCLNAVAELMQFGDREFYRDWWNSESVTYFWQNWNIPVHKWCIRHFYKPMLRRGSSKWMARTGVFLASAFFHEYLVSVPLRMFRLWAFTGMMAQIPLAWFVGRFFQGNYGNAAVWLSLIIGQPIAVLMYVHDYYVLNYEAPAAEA
Test: In-vitro DGAT1 assay with hDGAT1 microsomes from Sf9 cells (14C oleoyl CoA, scintillation counting)
Type: biochemical
Conditions: for inhibition at 1 µM: read-out: Percentage inhibition of hDGAT1; for Percentage inhibition of hDGAT1: at 1 μM
Procedure, shortened: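 Microsomes from Sf9 cells infected with hDGAT1 baculovirus (MOI 5, harvested ~66-72 h) were incubated with [14C]oleoyl-CoA and 1,2-dioleoyl-sn-glycerol at 37 °C for 10 min, in duplicate. After alkaline ethanol stop, triglycerides were heptane-extracted and counted by liquid scintillation; percent inhibition was plotted against compound concentration (nM).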

Compound | inhibition at 1 µM [%] | Percentage inhibition of hDGAT1
O=C(O)CCCc1nnc(-c2ccc(NC(=O)Nc3ccccc3Cl)cc2)s1 [Example 280, 4-(5-(4-(3-(2-Chlorophenyl)ureido)phenyl)-1,3,4-thiadiazol-2-yl)butanoic acid] | > 50 | 
Cc1ccc(NC(=O)Nc2ccc(-c3nnc(CCCC(=O)O)s3)cc2)cc1 [Example 282, 4-(5-(4-(3-(p-Tolyl)ureido)phenyl)-1,3,4-thiadiazol-2-yl)butanoic acid] | > 50 | 
O=C(O)CCCc1nnc(-c2ccc(NC(=O)Nc3ccc(F)cc3F)cc2)s1 [Example 284, 4-(5-(4-(3-(2,4-Difluorophenyl)ureido)phenyl)-1,3,4-thiadiazol-2-yl)butanoic acid] | > 50 | 
O=C(O)CCCc1nnc(-c2ccc(NC(=O)Nc3ccc(Cl)cc3Oc3ccccc3)cc2)s1 [Example 286, 4-(5-(4-(3-(4-Chloro-2-phenoxyphenyl)ureido)phenyl)-1,3,4-thiadiazol-2-yl)butanoic acid] | > 50 | 
CC(C)(C)c1ccc(C(=O)Nc2ccc(-c3nnc(CCCC(=O)O)s3)cc2)cc1 [Example 288, 4-(5-(4-(4-(tert-Butyl)benzamido)phenyl)-1,3,4-thiadiazol-2-yl)butanoic acid] | 20 to 50 | 
O=C(O)CCCc1nnc(-c2ccc(NC(=O)c3ccc(-c4ccccc4)cc3)cc2)s1 [Example 290, 4-(5-(4-([1,1′-Biphenyl]-4-ylcarboxamido)phenyl)-1,3,4-thiadiazol-2-yl)butanoic acid] |  | + (20-50% Inhibition)
O=C(O)CCCc1nnc(-c2ccc(NC(=O)c3ccc(OC(F)(F)F)cc3)cc2)s1 [Example 292, 4-(5-(4-(4-(Trifluoromethoxy)benzamido)phenyl)-1,3,4-thiadiazol-2-yl)butanoic acid] | 20 to 50 | 
O=C(O)CCCc1nnc(-c2ccc(NC(=O)Nc3ccccc3Cl)cc2)o1 [Example 296, 4-(5-(4-(3-(2-Chlorophenyl)ureido)phenyl)-1,3,4-oxadiazol-2-yl)butanoic acid] | 20 to 50 | 
O=C(O)CCCc1nnc(-c2ccc(NC(=O)Nc3ccc(F)cc3F)cc2)o1 [Example 300, 4-(5-(4-(3-(2,4-Difluorophenyl)ureido)phenyl)-1,3,4-oxadiazol-2-yl)butanoic acid] | 20 to 50 | 
O=C(O)CCCc1nnc(-c2ccc(NC(=O)Nc3cccc(C(F)(F)F)c3)cc2)o1 [Example 302, 4-(5-(4-(3-(3-(Trifluoromethyl)phenyl)ureido)phenyl)-1,3,4-oxadiazol-2-yl)butanoic acid] | 20 to 50 | 
O=C(Nc1ccc(-c2ccn(C3CCC(C(=O)O)CC3)n2)cc1)Nc1cccc(C(F)(F)F)c1 (stereo not drawn) [Example 315, 4-(3-(4-(3-(3-(Trifluoromethyl)phenyl)ureido)phenyl)-1H-pyrazol-1-yl)cyclohexanecarboxylic acid] | 20 to 50 | 
O=C(O)CCCc1nc(-c2ccc(NC(=O)Nc3ccc(Cl)cc3Oc3ccccc3)cc2)no1 [Example 322, 4-(3-(4-(3-(4-Chloro-2-phenoxyphenyl)ureido)phenyl)-1,2,4-oxadiazol-5-yl) butanoic acid] | > 50 | 
O=C(O)CC1CCC(c2ncc(-c3ccc(NC(=O)c4nc(-c5ccccc5)oc4C(F)(F)F)cc3)s2)CC1 (stereo not drawn) [Example 370, 2-(4-(5-(4-(2-Phenyl-5-(trifluoromethyl)oxazole-4-carboxamido)phenyl)thiazol-2-VI)cyclohexyl)acetic acid] |  | ++ (>50 % Inhibition)
Cc1nnc(CC2CCC(c3ncc(-c4ccc(NC(=O)Nc5ccc(F)cc5F)cc4)s3)CC2)o1 (stereo not drawn) [Example 379, 1-(2,4-Difluorophenyl)-3-(4-(2-(4-((5-methyl-1,3,4-oxadiazol-2-yl)methyl)cyclohexyl)thiazol-5-yl)phenyl)urea] | > 50 | 
Cc1nnc(CC2CCC(c3ncc(-c4ccc(NC(=O)Nc5cc(F)cc(F)c5)cc4)s3)CC2)o1 (stereo not drawn) [Example 381, 1-(3,5-Difluorophenyl)-3-(4-(2-(4-((5-methyl-1,3,4-oxadiazol-2-yl)methyl)cyclohexyl)thiazol-5-yl)phenyl)urea] | > 50 | 
Cc1nnc(CC2CCC(c3ncc(-c4ccc(NC(=O)Nc5cc(F)c(F)cc5F)cc4)s3)CC2)o1 (stereo not drawn) [Example 382, 1-(4-(2-(4-((5-Methyl-1,3,4-oxadiazol-2-yl)methyl)cyclohexyl)thiazol-5-yl)phenyl)-3-(2,4,5-trifluorophenyl)urea] | > 50 | 
Cc1nnc(CC2CCC(c3ncc(-c4ccc(NC(=O)Nc5c(F)cc(F)cc5F)cc4)s3)CC2)o1 (stereo not drawn) [Example 383, 1-(4-(2-(4-((5-Methyl-1,3,4-oxadiazol-2-yl)methyl)cyclohexyl)thiazol-5-yl)phenyl)-3-(2,4,6-trifluorophenyl)urea] | > 50 | 
Cc1noc(CC2CCC(c3ncc(-c4ccc(NC(=O)Nc5ccccc5F)cc4)s3)CC2)n1 (stereo not drawn) [Example 391, 1-(2-Fluorophenyl)-3-(4-(2-(4-((3-methyl-1,2,4-oxadiazol-5-yl)methyl)cyclohexyl)thiazol-5-yl)phenyl)urea] | > 50 | 
Cc1noc(CC2CCC(c3ncc(-c4ccc(NC(=O)Nc5cc(F)cc(F)c5)cc4)s3)CC2)n1 (stereo not drawn) [Example 392, 1-(3,5-Difluorophenyl)-3-(4-(2-(4-((3-methyl-1,2,4-oxadiazol-5-yl)methyl)cyclohexyl)thiazol-5-yl)phenyl)urea] | > 50 | 

Continued, in another order:

inhibition at 1 µM [%] | Compound | Percentage inhibition of hDGAT1
> 50 | O=C(O)CC1CCC(c2ncc(-c3ccc(NC(=O)Nc4ccccc4Cl)cc3)s2)CC1 (stereo not drawn) [Example 346, 2-(4-(5-(4-(3-(2-Chlorophenyl)ureido)phenyl)thiazol-2-yl)cyclohexyl)acetic acid] | 
> 50 | O=C(O)CC1CCC(c2ncc(-c3ccc(NC(=O)Nc4ccccc4F)cc3)s2)CC1 (stereo not drawn) [Example 348, 2-(4-(5-(4-(3-(2-Fluorophenyl)ureido)phenyl)thiazol-2-yl)cyclohexyl)acetic acid] | 
> 50 | O=C(O)CC1CCC(c2ncc(-c3ccc(NC(=O)Nc4cc(F)cc(F)c4)cc3)s2)CC1 (stereo not drawn) [Example 356, 2-(4-(5-(4-(3-(3,5-Difluorophenyl)ureido)phenyl)thiazol-2-yl)cyclohexyl)acetic acid] | 
> 50 | O=C(O)CC1CCC(c2ncc(-c3ccc(NC(=O)Nc4cc(F)c(F)cc4F)cc3)s2)CC1 (stereo not drawn) [Example 358, 2-(4-(5-(4-(3-(2,4,5-Trifluorophenyl)ureido)phenyl)thiazol-2-yl)cyclohexyl)acetic acid] | 
> 50 | O=C(O)CC1CCC(c2ncc(-c3ccc(NC(=O)Nc4c(F)cc(F)cc4F)cc3)s2)CC1 (stereo not drawn) [Example 360, 2-(4-(5-(4-(3-(2,4,6-Trifluorophenyl)ureido)phenyl)thiazol-2-yl)cyclohexyl)acetic acid] | 
> 50 | O=C(O)CC1CCC(c2ncc(-c3ccc(NC(=O)Nc4ccc(F)cc4F)cc3)s2)CC1 (stereo not drawn) [Example 362, 2-(4-(5-(4-(3-(2,4-Difluorophenyl)ureido)phenyl)thiazol-2-yl)cyclohexyl)acetic acid] | 
> 50 | O=C(O)CC1CCC(c2ncc(-c3ccc(NC(=O)c4ccc(Cl)cc4Cl)cc3)s2)CC1 (stereo not drawn) [Example 364, 2-(4-(5-(4-(2,4-Dichlorobenzamido)phenyl)thiazol-2-yl)cyclohexyl)acetic acid] | 
> 50 | O=C(O)CC1CCC(c2ncc(-c3ccc(NC(=O)c4c(F)cccc4C(F)(F)F)cc3)s2)CC1 (stereo not drawn) [Example 366, 2-(4-(5-(4-(2-Fluoro-6-(trifluoromethyl)benzamido)phenyl)thiazol-2-yl)cyclohexyl)acetic acid] | 
> 50 | O=C(O)CC1CCC(c2ncc(-c3ccc(NC(=O)Nc4cc(F)c(F)c(F)c4)cc3)s2)CC1 (stereo not drawn) [Example 368, 2-(4-(5-(4-(3-(3,4,5-Trifluorophenyl)ureido)phenyl)thiazol-2-yl)cyclohexyl)acetic acid] | 
> 50 | Cc1oc(-c2ccccc2)nc1C(=O)Nc1ccc(-c2cnc(C3CCC(CC(=O)O)CC3)s2)cc1 (stereo not drawn) [Example 372, 2-(4-(5-(4-(5-Methyl-2-phenyloxazole-4-carboxamido)phenyl)thiazol-2-yl)cyclohexyl)acetic acid] | 
> 50 | O=C(O)CC1CCC(c2ncc(-c3ccc(NC(=S)Nc4ccccc4F)cc3)s2)CC1 (stereo not drawn) [Example 374, 2-(4-(5-(4-(3-(2-Fluorophenyl)thioureido)phenyl)thiazol-2-yl)cyclohexyl)acetic acid] | 
20 to 50 | Cc1nnc(CC2CCC(c3ncc(-c4ccc(NC(=O)Nc5ccccc5Cl)cc4)s3)CC2)o1 (stereo not drawn) [Example 380, 1-(2-Chlorophenyl)-3-(4-(2-(4-((5-methyl-1,3,4-oxadiazol-2-yl)methyl)cyclohexyl)thiazol-5-yl)phenyl)urea] | 
20 to 50 | Cc1nnc(CC2CCC(c3ncc(-c4ccc(NC(=O)c5c(F)cccc5F)cc4)s3)CC2)o1 (stereo not drawn) [Example 385, 2,6-Difluoro-N-(4-(2-(4-((5-methyl-1,3,4-oxadiazol-2-yl)methyl)cyclohexyl)thiazol-5-yl)phenyl)benzamide] | 
> 50 | Cc1noc(CC2CCC(c3ncc(-c4ccc(NC(=O)Nc5ccccc5Cl)cc4)s3)CC2)n1 (stereo not drawn) [Example 390, 1-(2-Chlorophenyl)-3-(4-(2-(4-((3-methyl-1,2,4-oxadiazol-5-yl)methyl)cyclohexyl)thiazol-5-yl)phenyl)urea] | 
